Experimental data from US8354225B1, “Amplification of oligonucleotides containing non-standard nucleobases” (priority 2004, dated 2013).

Tests used:
[1] = cited from earlier work
[2] = tested on: d(puADA) in the template (T3); assay: Paused-extension screen of polymerases; type: biochemical; conditions: template T3, primer P3, dNTPs, 72° C., 15 seconds
Protocol: FIG. 6. Use of Taq and DeepVent (DV) exo^+ polymerases as sequencing tools. Both polymerases were incubated with template T3, primer P3, and dNTPs.P=primer alone, 19 nts in length. […] Deep Vent exo appears to be degrading the primer, and perhaps the product as well.
Radiolabeled primer P3 (1 pmol) was mixed with template T3 (2 pmol), Thermopol buffer (1.5 μL, 10×), dATP, dCTP, dTTP, dGTP (final conc. 10 μM each), and water to a final volume of 14 μL. The mixture was heated to 95° C. for 10 min. and allowed to cool to ambient for 1 hour. The respective polymerase (Taq, Vent, Deep Vent, Vent exo^−, or Deep Vent exo−) was added (1 μL, 2 U/μL) and the reaction incubated at 72° C. for 15 seconds. The reaction was quenched with 20 mM EDTA in PAGE loading buffer (15 μL) and subsequently analyzed by electrophoresis on a 20% PAGE gel. The gel was analyzed using the MolecularImager software.

## O=c1[nH]c(=O)c2[nH]cnc2[nH]1 [pu(ADA), xanthine]
[1]; free heterocycle
  pKa of the heterocycle (acid): ca. 5.7

## Nc1ccnc(N)n1 [py(DAD), 2,4-diaminopyrimidine]
[1]; protonated heterocycle
  pKa of the conjugate acid: ≈ 6.7

## Taq polymerase: Taq polymerase used as sequencing tool
[2]
  elongation upon encountering dX / d(puADA) in the template: terminates the elongation of a primer
[2]; listed as Taq
  elongation upon encountering dX / d(puADA) in the template: abort elongation
